Results taken from patent publication US20240010684A1, “MASP INHIBITORY COMPOUNDS AND USES THEREOF” (BAYER AKTIENGESELLSCHAFT, priority 2020, published 2024).
*1 amine or outer side, *2 acyl side, *3 side chain or, on linkers, in order; H or OH if unused. Where a SMILES comes first, the peptide text is derived from it. Bridges are numbered along the chain shown (N, C = ends). [ ]: non-standard residue; d: D form. X6 = O=C(CCC(=O)[*:1])NCCCOCCOCCOCCCN[*:2]; Oic = O=C(O)[C@@H]1C[C@@H]2CCCC[C@@H]2N1; tBuAla = CC(C)(C)C[C@H](N)C(=O)O; Pen = CC(C)(S)[C@H](N)C(=O)O; Orn = NCCC[C@H](N)C(=O)O; Abu = CC[C@H](N)C(=O)O; Ahx = NCCCCCC(=O)O

How the values were obtained:
human MASP1 = human MASP1 (Homo sapiens (Human), UniProt P48740); test: Biochemical human MASP1 assay (FRET substrate); details: Average IC50; recombinant human MASP1; read-out: human MASP1 IC50
Description: A truncated cDNA sequence of human MASP1 encoding the fragment corresponding to the amino acids 297-699 with a C-terminal His Tag and N-terminal Ig-kappa secretion signal (SEQ ID No: 2) was subcloned into the mammalian expression vector pcDNA3.1 (Invitrogen).
The MASP1 or MASP2 expression vectors were transfected into the HEK293 (ATCC No. CRL-1573) cell line using Lipofectamine LTX® Reagent (Thermo-Fischer), as described by the manufacturer. The mature form of the recombinant human MASP1 and MASP2 proteases were secreted into the culture medium. The MASP1 and MASP2 proteins were purified from the conditioned media by affinity chromatography on Ni-NTA Superflow resin (Qiagen) as described by the manufacturer.
2.2 Biochemical Human MASP1 Assay
Recombinant human MASP1 enzyme produced in the HEK 293 cells was diluted in the reaction buffer (50 mM HEPES pH 8,0; 100 mM NaCl; 0,01% CHAPS; 0.5 mM Gluthathione) to the concentration of 20 nM and 25 μl was transferred into each single well of 384-well white microtiter plate (Greiner Bio One 781075). 1 μl of the inhibitor compound solution (dissolved in DMSO, at the corresponding concentration) or pure DMSO as a control was added to the same wells. The enzymatic reaction was initiated by addition of 25 μl of 20 μM solution of the FRET substrate ABZ-[…]-Lys (Dnp)-NH2; (ABZ-2-aminobenzoyl; DNP 2,4-dinitrophenyl; custom synthesis by Jerini Peptide Technologies, Berlin) in the reaction buffer. The microtiter plate was incubated for 60-120 min at the temperature of 32 C. The increase of fluorescence intensity was measured in appropriate fluorescence plate reader (e.g. TECAN Ultra) using excitation wavelength of 320 nm and emission wavelength of 420 nm. IC50 values were calculated from percentage of inhibition of human MASP1 activity as a function of test compound concentration.

human MASP2 = human MASP2 (Homo sapiens (Human), UniProt O00187); test: Biochemical human MASP2 assay (FRET substrate); details: Average IC50; recombinant human MASP2; read-out: human MASP2 IC50
Description: The MASP1 or MASP2 expression vectors were transfected into the HEK293 (ATCC No. CRL-1573) cell line using Lipofectamine LTX® Reagent (Thermo-Fischer), as described by the manufacturer. The mature form of the recombinant human MASP1 and M[…] were secreted into the culture medium. The MASP1 and M[…] were purified from the conditioned media by affinity chromatography on Ni-NTA Superflow resin (Qiagen) as described by the manufacturer. 2.3 Biochemical Human MASP2 Assay […] The enzymatic reaction was initiated by addition of 25 μl of 60 μM solution of the FRET substrate DABCYL-[…]; […] The microtiter plate was incubated for 60-120 min at the temperature of 32 C. The increase of fluorescence intensity was measured in appropriate fluorescence plate reader (e.g. TECAN Ultra) using excitation wavelength of 340 nm and emission wavelength of 490 nm. IC50 values were calculated from percentage of inhibition of human MASP2 activity as a function of test compound concentration.

Chain of human MASP2 (O00187 other isoform, or with tags, fused parts or gaps): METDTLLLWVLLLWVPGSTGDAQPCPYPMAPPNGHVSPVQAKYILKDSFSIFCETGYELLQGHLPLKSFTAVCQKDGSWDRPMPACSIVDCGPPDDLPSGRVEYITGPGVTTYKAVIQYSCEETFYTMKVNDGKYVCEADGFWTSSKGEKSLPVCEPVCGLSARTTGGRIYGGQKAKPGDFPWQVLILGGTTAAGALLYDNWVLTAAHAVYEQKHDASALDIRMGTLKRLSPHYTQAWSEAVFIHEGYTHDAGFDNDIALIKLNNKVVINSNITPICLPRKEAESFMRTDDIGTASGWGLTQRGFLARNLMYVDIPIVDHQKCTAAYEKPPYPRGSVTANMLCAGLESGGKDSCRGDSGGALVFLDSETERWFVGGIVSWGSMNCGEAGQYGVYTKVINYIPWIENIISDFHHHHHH
Chain of human MASP1 (P48740 other isoform, or with tags, fused parts or gaps): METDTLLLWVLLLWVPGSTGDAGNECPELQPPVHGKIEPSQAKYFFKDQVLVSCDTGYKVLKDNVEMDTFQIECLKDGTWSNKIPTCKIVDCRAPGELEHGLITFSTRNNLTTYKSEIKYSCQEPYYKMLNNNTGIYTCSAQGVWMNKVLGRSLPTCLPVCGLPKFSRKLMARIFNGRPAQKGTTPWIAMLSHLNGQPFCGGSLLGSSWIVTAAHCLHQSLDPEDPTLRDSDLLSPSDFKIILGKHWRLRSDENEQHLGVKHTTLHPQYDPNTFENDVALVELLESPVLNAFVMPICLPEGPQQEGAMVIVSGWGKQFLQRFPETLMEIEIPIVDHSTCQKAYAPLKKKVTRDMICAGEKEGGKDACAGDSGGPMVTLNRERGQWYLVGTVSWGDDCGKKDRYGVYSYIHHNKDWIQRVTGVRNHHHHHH

Compound	IC50 (human MASP1)	IC50 (human MASP2)
CC[C@@H]1NC(=O)CCCCCNC(=O)[C@H](CC(=O)O)NC(=O)[C@@H]2CCCN2C(=O)[C@H]([C@@H](C)CC)NC(=O)[C@H]2NC(=O)[C@H]([C@@H](C)CC)NC(=O)[C@@H]3CCCN3C(=O)[C@@H]3CCCN3C(=O)[C@H](CC(C)(C)C)NC(=O)[C@H](CO)NC(=O)[C@H](CCCNC(=N)N)NC(=O)[C@H](CO)NC(=O)[C@H](CSSC2(C)C)NC(=O)[C@H]([C@@H](C)CC)NC1=O [Example 38] (cyclo([Abu]ICSRS[tBuAla]PPI[Pen]IPD[Ahx]); disulfide 3-11)	20 nM	44 nM
CC[C@H](C)[C@@H]1NC(=O)[C@H](C)NC(=O)CCCCCNC(=O)[C@H](CC(=O)O)NC(=O)[C@@H]2CCCN2C(=O)[C@H]([C@@H](C)CC)NC(=O)[C@@H]2CSSC[C@H](NC1=O)C(=O)N[C@@H](CO)C(=O)N[C@@H](CCCNC(=N)N)C(=O)N[C@@H](CO)C(=O)N[C@@H](CC(C)C)C(=O)N1CCC[C@H]1C(=O)N1CCC[C@H]1C(=O)N[C@@H]([C@@H](C)CC)C(=O)N2 [Example 45] (cyclo(AICSRSLPPICIPD[Ahx]); disulfide 3-11)	92 nM	74 nM
CC[C@H](C)[C@@H]1NC(=O)CNC(=O)CNC(=O)[C@H](C)NC(=O)[C@@H](CC(=O)O)NC(=O)[C@@H]2CCCN2C(=O)[C@H]([C@@H](C)CC)NC(=O)[C@@H]2CSSC[C@H](NC1=O)C(=O)N[C@@H](CO)C(=O)N[C@@H](CCCNC(=N)N)C(=O)N[C@@H](CO)C(=O)N[C@@H](CC(C)C)C(=O)N1CCC[C@H]1C(=O)N1CCC[C@H]1C(=O)N[C@@H]([C@@H](C)CC)C(=O)N2 [Example 17] (cyclo(AGGICSRSLPPICIP[dD]); disulfide 5-13)	26 nM	88 nM
CC[C@H](C)[C@@H]1NC(=O)[C@H](C)NC(=O)CCC(=O)NCCCOCCOCCOCCCNC(=O)[C@H](CC(=O)O)NC(=O)[C@@H]2CCCN2C(=O)[C@H]([C@@H](C)CC)NC(=O)[C@H]2NC(=O)[C@H]([C@@H](C)CC)NC(=O)[C@@H]3CCCN3C(=O)[C@@H]3CCCN3C(=O)[C@H](CC(C)(C)C)NC(=O)[C@H](CO)NC(=O)[C@H](CCCNC(=N)N)NC(=O)[C@H](CO)NC(=O)[C@H](CSSC2(C)C)NC1=O [Example 63] (AICSRS[tBuAla]PPI[Pen]IPD; disulfide 3-11; linker N-C via X6)	28 nM	170 nM
CC[C@H](C)[C@@H]1NC(=O)CNC(=O)[C@H](CCCN)NC(=O)[C@H]([C@@H](C)CC)NC(=O)[C@H]2NC(=O)[C@H]([C@@H](C)CC)NC(=O)[C@@H]3CCCN3C(=O)[C@@H]3CCCN3C(=O)[C@H](CC(C)(C)C)NC(=O)[C@H](CO)NC(=O)[C@H](CCCNC(=N)N)NC(=O)[C@H](CO)NC(=O)[C@H](CSSC2(C)C)NC1=O [Example 65, N-{3-[(5aS,11S,14S,17S,20S,23R,26S,32S,35S,38R,41S,43aS)-32-(3-aminopropyl)-26,35,41-tri[(2S)-butan-2-yl]-11-(2,2-dimethylpropyl)-14,20-bis(hydroxymethyl)-44,44-dimethyl-5,10,13,16,19,22,25,28,31,34,37,40,43-tridecaoxodotetracontahydro-5H-23,38-(methanodithiomethano)dipyrrolo[1,2-a:1′,2′-d][1,4,7,10,13,16,19,22,25,28,31,34,37]tridecaazacyclononatriacontin-17-yl]propyl}guanidine] (cyclo(CSRS[tBuAla]PPI[Pen]I[Orn]GI); disulfide 1-9)	49 nM	540 nM
CC[C@H](C)[C@@H]1NC(=O)CNC(=O)CNC(=O)[C@H](C)NC(=O)C[C@@H](C(N)=O)NC(=O)[C@@H]2CCCN2C(=O)[C@H]([C@@H](C)CC)NC(=O)[C@H]2NC(=O)[C@H]([C@@H](C)CC)NC(=O)[C@@H]3C[C@@H]4CCCC[C@@H]4N3C(=O)[C@@H]3CCCN3C(=O)[C@H](CC(C)C)NC(=O)[C@H](CO)NC(=O)[C@H](CCCNC(=N)N)NC(=O)[C@H](CO)NC(=O)[C@H](CSSC2(C)C)NC1=O [Example 42] (AGGICSRSLP[Oic]I[Pen]IPD-NH2; disulfide 5-13; lactam N-16)	13 nM	200 nM
